Measurements from patent US12466804B2 (BRISTOL-MYERS SQUIBB COMPANY, priority 2019, dated 2025).

Target: T1, human LPA1 (Homo sapiens, UniProt Q92633)
T1 construct: expressed in transfected cells; host or cells: Chinese hamster ovary (CHO) cells
Test: LPA1 functional antagonist assay (LPA-induced calcium flux)
Format: cell-based
Settings: CHO cells overexpressing human LPA1; calcium flux induced by 10 nM LPA; read-out: hLPA1 IC50
Experimental: The effectiveness of compounds of the present invention as LPA1 inhibitors can be determined in an LPA1 functional antagonist assay as follows:
The cells were then equilibrated to room temperature for 30 minutes before the assay. […] IC50 values were determined by fitting data to a 4-parameter logistic equation (GraphPad Prism, San Diego CA).

T1 sequence (Q92633 whole entry): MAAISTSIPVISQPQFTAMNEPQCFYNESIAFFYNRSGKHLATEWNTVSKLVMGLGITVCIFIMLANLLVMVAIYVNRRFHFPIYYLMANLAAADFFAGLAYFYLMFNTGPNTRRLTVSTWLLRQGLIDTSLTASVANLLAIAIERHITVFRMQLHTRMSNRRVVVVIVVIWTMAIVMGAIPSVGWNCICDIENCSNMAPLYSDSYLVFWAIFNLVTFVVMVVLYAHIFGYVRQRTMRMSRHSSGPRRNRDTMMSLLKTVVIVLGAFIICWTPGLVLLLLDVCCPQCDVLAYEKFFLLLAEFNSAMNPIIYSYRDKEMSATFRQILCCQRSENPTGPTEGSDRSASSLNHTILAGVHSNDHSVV

Compound	IC50 [nM]
COc1cc(OCc2c(-c3ccc(OC[C@@H]4CC[C@H]4C(=O)O)c(C)n3)nnn2C)ncn1 (racemic) [Example 19, (±)-(1R,2R)-2-(((6-(5-(((6-methoxy-pyrimidin-4-yl)oxy)methyl)-1-methyl-1H-1,2,3-triazol-4-yl)-2-methylpyridin-3-yl)oxy)methyl)cyclobutane-1-carboxylic acid]	121
CCOc1ccnc(NCc2c(-c3ccc(OC[C@@H]4CC[C@H]4C(=O)O)c(C)n3)nnn2C)n1 (racemic) [Example 21, (±)-(1R,2R)-2-(((6-(5-(((4-ethoxy-pyrimidin-2-yl)amino)methyl)-1-methyl-1H-1,2,3-triazol-4-yl)-2-methylpyridin-3-yl)oxy)methyl)cyclobutane-1-carboxylic acid]	24
Cc1nc(-c2nnn(C)c2CNc2nccc(Oc3ccccc3)n2)ccc1OC[C@@H]1CC[C@H]1C(=O)O (racemic) [Example 22, (±)-(1R,2R)-2-(((2-methyl-6-(1-methyl-5-(((4-phenoxypyrimidin-2-yl)amino)methyl)-1H-1,2,3-triazol-4-yl)pyridin-3-yl)oxy)methyl)cyclobutane-1-carboxylic acid]	149
Cc1nc(-c2nnn(C)c2CNc2nccc(C(C)C)n2)ccc1OC[C@@H]1CC[C@H]1C(=O)O (racemic) [Example 23, (±)-(1R,2R)-2-(((6-(5-(((4-isopropyl-pyrimidin-2-yl)amino)methyl)-1-methyl-1H-1,2,3-triazol-4-yl)-2-methylpyridin-3-yl)oxy)methyl)cyclobutane-1-carboxylic acid]	117
Cc1nc(-c2nnn(C)c2CNc2nccc(-c3ccccn3)n2)ccc1OC[C@@H]1CC[C@H]1C(=O)O (racemic) [Example 26, (±)-(1R,2R)-2-(((2-methyl-6-(1-methyl-5-(((4-(pyridin-2-yl)pyrimidin-2-yl)amino)methyl)-1H-1,2,3-triazol-4-yl)pyridin-3-yl)oxy)methyl)cyclobutane-1-carboxylic acid]	56
Cn1nnc(-c2ccc(OC[C@@H]3CC[C@H]3C(=O)O)cn2)c1CNc1nccc(-c2ccccn2)n1 (racemic) [Example 27, (±)-(1R,2R)-2-(((6-(1-methyl-5-(((4-(pyridin-2-yl)pyrimidin-2-yl)amino)methyl)-1H-1,2,3-triazol-4-yl)pyridin-3-yl)oxy)methyl)cyclobutane-1-carboxylic acid]	49
Cc1nc(-c2nnn(C)c2COC(=O)N(C)CC2CC2)ccc1OC[C@@H]1CC[C@H]1C(=O)O (racemic) [Example 31, (±)-(1R,2R)-2-(((6-(5-((((Cyclopropylmethyl)(methyl)carbamoyl)oxy)methyl)-1-methyl-1H-1,2,3-triazol-4-yl)-2-methylpyridin-3-yl)oxy)methyl) cyclobutanecarboxylic acid]	184
Cc1nc(-c2nnn(C)c2CNC(=O)OCc2ccccc2)ccc1OC[C@@H]1CC[C@H]1C(=O)O (racemic) [Example 32, (±)-(1R,2R)-2-(((6-(5-((((Benzyloxy)carbonyl)amino)methyl)-1-methyl-1H-1,2,3-triazol-4-yl)-2-methylpyridin-3-yl)oxy)methyl)cyclobutanecarboxylic acid]	70
Cc1nc(-c2nnn(C)c2CNC(=O)OCCC2CC2)ccc1OC[C@@H]1CC[C@H]1C(=O)O (racemic) [Example 33, (±)-(1R,2R)-2-(((6-(5-((((2-Cyclopropylethoxy)carbonyl)amino)methyl)-1-methyl-1H-1,2,3-triazol-4-yl)-2-methylpyridin-3-yl)oxy)methyl)cyclobutanecarboxylic acid]	326
Cc1nc(-c2nnn(C)c2NC(=O)OCC(C)C)ccc1OC[C@@H]1CC[C@H]1C(=O)O (racemic) [Example 34, (±)-(1R,2R)-2-(((6-(5-((Isobutoxycarbonyl)amino)-1-methyl-1H-1,2,3-triazol-4-yl)-2-methylpyridin-3-yl)oxy)methyl)cyclobutane-1-carboxylic acid]	1190
Cc1nc(-c2nnn(C)c2CNc2nccc(-c3ccccc3)n2)ccc1OC[C@@H]1CC[C@H]1C(=O)O (racemic) [Example 35, (±)-(1R,2R)-2-(((2-Methyl-6-(1-methyl-5-(((4-phenylpyrimidin-2-yl)amino)methyl)-1H-1,2,3-triazol-4-yl)pyridin-3-yl)oxy)methyl)cyclobutanecarboxylic acid]	49
Cc1nc(-c2nnn(C)c2Cn2nnc(CC3CC3)n2)ccc1OC[C@@H]1CC[C@H]1C(=O)O (racemic) [Example 36, (±)-(1R,2R)-2-(((6-(5-((5-(Cyclopropylmethyl)-2H-tetrazol-2-yl)methyl)-1-methyl-1H-1,2,3-triazol-4-yl)-2-methylpyridin-3-yl)oxy)methyl)cyclobutane-1-carboxylic acid]	86
Cc1nc(-c2nnn(C)c2Cn2nnnc2CC2CC2)ccc1OC[C@@H]1CC[C@H]1C(=O)O (racemic) [Example 37, (±)-(1R,2R)-2-(((6-(5-((5-(Cyclopropylmethyl)-1H-tetrazol-1-yl)methyl)-1-methyl-1H-1,2,3-triazol-4-yl)-2-methylpyridin-3-yl)oxy)methyl)cyclobutane-1-carboxylic acid]	267
Cc1nc(-c2nnn(C)c2CNc2ncc(-c3ccccn3)o2)ccc1OC[C@@H]1CC[C@H]1C(=O)O (racemic) [Example 40, (±)-(1R,2R)-2-(((2-methyl-6-(1-methyl-5-(((5-(pyridin-2-yl)oxazol-2-yl)amino)methyl)-1H-1,2,3-triazol-4-yl)pyridin-3-yl)oxy)methyl)cyclobutanecarboxylic acid]	520
Cc1nc(-c2nnn(C)c2CNC(=O)OCC(C)C)ccc1OC[C@@H]1CC[C@H]1C(=O)O (racemic) [Example 41, (±)-(1R,2R)-2-(((6-(5-(((isobutoxy-carbonyl)amino)methyl)-1-methyl-1H-1,2,3-triazol-4-yl)-2-methy-lpyridin-3-yl)oxy)methyl)cyclobutanecarboxylic acid]	3750
CCCCOC(=O)NCc1c(-c2ccc(OC[C@@H]3CC[C@H]3C(=O)O)c(C)n2)nnn1C (racemic) [Example 42, (±)-(1R,2R)-2-(((6-(5-(((butoxy-carbonyl)amino)methyl)-1-methyl-1H-1,2,3-triazol-4-yl)-2-methyl-pyridin-3-yl)oxy)methyl)cyclobutanecarboxylic acid]	649
CC[C@H](C)COC(=O)NCc1c(-c2ccc(OC[C@@H]3CC[C@H]3C(=O)O)c(C)n2)nnn1C (racemic) [Example 43, (±)-(1R,2R)-2-(((2-methyl-6-(1-methyl-5-(((((S)-2-methyl-butoxy)carbonyl)amino)methyl)-1H-1,2,3-triazol-4-yl)pyridin-3-yl)oxy)methyl)cyclobutane carboxylic acid]	47
Cc1nc(-c2nnn(C)c2CNC(=O)OCC(C)CC(F)(F)F)ccc1OC[C@@H]1CC[C@H]1C(=O)O (mixture of isomers) [Example 44, (±)-(1R,2R)-2-(((2-methyl-6-(1-methyl-5-((((4,4,4-trifluoro-2-methylbutoxy)carbonyl)amino)methyl)-1H-1,2,3-triazol-4-yl)pyridin-3-yl)oxy)methyl)cyclobutane carboxylic acid]	103
Cc1nc(-c2nnn(C)c2COC(=O)NC2CCCCC2)ccc1OC[C@@H]1CC[C@H]1C(=O)O (racemic) [Example 45, (±)-(1R,2R)-2-(((6-(5-(((cyclohexylcarbamoyl)oxy)methyl)-1-methyl-1H-1,2,3-triazol-4-yl)-2-methyl-pyridin-3-yl)oxy)methyl)cyclobutane-1-carboxylic acid]	435
CCCN(C)C(=O)OCc1c(-c2ccc(OC[C@@H]3CC[C@H]3C(=O)O)c(C)n2)nnn1C (racemic) [Example 46]	275
Cc1nc(-c2nnn(C)c2COC(=O)N(C)C2CCCC2)ccc1OC[C@@H]1CC[C@H]1C(=O)O (racemic) [Example 47, (±)-(1R,2R)-2-(((6-(5-(((cyclopentyl(methyl)carbamoyl)oxy)methyl)-1-methyl-1H-1,2,3-triazol-4-yl)-2-methyl-pyridin-3-yl)oxy)methyl)cyclobutane carboxylic acid]	23
Cc1nc(-c2nnn(C)c2COC(=O)N(C)C2CCC2)ccc1OC[C@@H]1CC[C@H]1C(=O)O (racemic) [Example 48, (±)-(1R,2R)-2-(((6-(5-(((cyclobutyl(methyl)carbamoyl)oxy)methyl)-1-methyl-1H-1,2,3-triazol-4-yl)-2-methylpyridin-3-yl)oxy)methyl)cyclobutanecarboxylic acid]	72
Cc1nc(-c2nnn(C)c2COC(=O)N(C)CC(C)C)ccc1OC[C@@H]1CC[C@H]1C(=O)O (racemic) [Example 49, (±)-(1R,2R)-2-(((6-(5-(((isobutyl(methyl)carbamoyl)oxy)methyl)-1-methyl-1H-1,2,3-triazol-4-yl)-2-methylpyridin-3-yl)oxy)methyl)cyclobutanecarboxylic acid]	232
CCCCN(C)C(=O)OCc1c(-c2ccc(OC[C@@H]3CC[C@H]3C(=O)O)c(C)n2)nnn1C (racemic) [Example 50, (±)-(1R,2R)-2-(((6-(5-(((butyl(methyl)carbamoyl)oxy)methyl)-1-methyl-1H-1,2,3-triazol-4-yl)-2-methylpyridin-3-yl)oxy)methyl)cyclobutanecarboxylic acid]	22
CCC(C)Cc1nc(NCc2c(-c3ccc(OCC45CC(C(=O)O)(C4)C5)c(C)n3)nnn2C)no1 (racemic) [Example 56, (±)-3-(((2-methyl-6-(1-methyl-5-(((5-(2-methylbutyl)-1,2,4-oxadiazol-3-yl)amino)methyl)-1H-1,2,3-triazol-4-yl)pyridin-3-yl)oxy)methyl)bicyclo[1.1.1]pentane-1-carboxylic acid]	586
Cc1nc(-c2nnn(C)c2NC(=O)OCC2CC2)ccc1OC[C@H]1CC[C@@H]1C(=O)O (racemic) [Example 59, (±)-(1S,2S)-2-(((6-(5-(((cyclopropyl-methoxy)carbonyl)amino)-1-methyl-1H-1,2,3-triazol-4-yl)-2-methyl-pyridin-3-yl)oxy)methyl)cyclobutane-1-carboxylic acid]	3590
